“Also recorded” adds a separate entry of the source. Each block holds one compound with its values, some of them ahead of it.
Assays:
α2b adrenoreceptor [1] = molecular target: T1, α2b adrenoreceptor (Homo sapiens, UniProt P18089); experiment: [35S]-GTPγS binding exchange, α2b CHO cell membranes; assay type: biochemical; conditions: for stimulation of [35S]-GTPγS binding, α2b (in words): CHO cell membranes
T1 construct: expressed in transfected cells; host or cells: CHO (Chinese hamster ovary) cells, membranes
T1 sequence (P18089 1-450): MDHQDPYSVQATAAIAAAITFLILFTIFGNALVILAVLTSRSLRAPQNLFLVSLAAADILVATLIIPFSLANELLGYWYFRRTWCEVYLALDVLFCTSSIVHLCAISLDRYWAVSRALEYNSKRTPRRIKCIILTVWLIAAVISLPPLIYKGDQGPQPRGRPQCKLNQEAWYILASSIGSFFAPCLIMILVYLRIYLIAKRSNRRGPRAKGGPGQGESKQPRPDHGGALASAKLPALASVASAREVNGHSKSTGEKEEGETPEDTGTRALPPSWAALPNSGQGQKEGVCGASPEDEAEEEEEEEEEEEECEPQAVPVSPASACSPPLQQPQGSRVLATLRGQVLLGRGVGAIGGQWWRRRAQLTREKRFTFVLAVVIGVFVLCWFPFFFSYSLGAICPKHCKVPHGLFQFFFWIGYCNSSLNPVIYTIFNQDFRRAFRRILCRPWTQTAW
Procedure: (§1) The affinity and activity of phenylephrine metabolites were evaluated in human recombinant α1 and α2 adrenoreceptor binding and activity assays. […] Affinity of the metabolites was determined by receptor binding assays. Functional activity of the metabolites was assessed using an [^35S]-GTPγS binding exchange assay for the α2 receptor subtypes and a cell-based calcium flux response for the α1 receptor subtypes.
Assay buffer was 75 mM Tris-HCl pH 7.4, 12.5 mM MgCl2, 2 mM EDTA and 1 μM GDP. Plates were counted on a Packard TopCount. The percent increase over basal binding of [^35S]-GTPγS, a measure of efficacy, was calculated as follows: 100×[[mean total sample cpm−basal cpm]÷by basal cpm]. Basal cpm was defined as the mean cpm in the absence of agonist compound minus the mean non-specific binding cpm.
(§2) Each metabolite was evaluated in each assay in at least 2 independent experiments and a representative assay of each metabolite/assay combination is shown.

α2b adrenoreceptor [2] = molecular target: T1, α2b adrenoreceptor; experiment: Competition binding, [3H]-UK14304, α2b CHO cell membranes; conditions: for inhibition of [3H]-UK14304 binding, α2b (in words): CHO cell membranes
Procedure: as §1
(§3) Competition Binding Assays
(§4) Competition binding assays for the α2 adrenoreceptors were performed using 20 μg membrane protein per well in binding buffer (75 mM Tris-HCl pH 7.4, 12.5 mM MgCl2, […] EDTA, 0.2% bovine serum albumin). […] Binding was terminated by rapid filtration through GF/C unifilter plates, presoaked with 0.3% polyethylenimine, with five washes with 0.5 ml cold 50 mM Tris-HCl ph 7.4, using a Packard Filtermate Harvester. After drying, bound radioactivity was determined by liquid scintillation counting (Packard TopCount) with Microscint 20, 50 μl/well. Binding data were analyzed using GraphPad Prism.
as §2

α1b adrenoreceptor [3] = molecular target: T2, α1b adrenoreceptor (Homo sapiens, UniProt P35368); experiment: Competition binding, [3H]-prazosin, α1b CHO cell membranes
T2 construct: expressed in transfected cells
T2 sequence (P35368 1-520): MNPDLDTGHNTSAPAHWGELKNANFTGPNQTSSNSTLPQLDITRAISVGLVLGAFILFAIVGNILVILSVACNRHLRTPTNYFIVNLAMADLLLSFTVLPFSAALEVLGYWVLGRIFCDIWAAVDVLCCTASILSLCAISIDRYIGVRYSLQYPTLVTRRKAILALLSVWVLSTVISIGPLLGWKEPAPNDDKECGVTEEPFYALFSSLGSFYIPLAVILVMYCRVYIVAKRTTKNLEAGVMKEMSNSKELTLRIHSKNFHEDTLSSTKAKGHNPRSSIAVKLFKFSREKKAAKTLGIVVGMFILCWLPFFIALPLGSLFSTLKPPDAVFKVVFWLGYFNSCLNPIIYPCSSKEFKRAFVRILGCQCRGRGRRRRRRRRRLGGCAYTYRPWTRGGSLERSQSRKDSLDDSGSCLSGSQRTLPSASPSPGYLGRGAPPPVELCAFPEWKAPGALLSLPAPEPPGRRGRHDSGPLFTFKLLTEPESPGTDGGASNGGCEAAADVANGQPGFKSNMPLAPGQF
Procedure: as §1, §3, §4, §2

α2a adrenoreceptor = molecular target: T3, α2a adrenoreceptor (Homo sapiens, UniProt P08913); experiment: Competition binding, [3H]-UK14304, α2a CHO cell membranes; conditions: for inhibition of [3H]-UK14304 binding, α2a (in words): CHO cell membranes
T3 construct: expressed in transfected cells; host or cells: CHO (Chinese hamster ovary) cells, membranes
T3 sequence (P08913 1-465): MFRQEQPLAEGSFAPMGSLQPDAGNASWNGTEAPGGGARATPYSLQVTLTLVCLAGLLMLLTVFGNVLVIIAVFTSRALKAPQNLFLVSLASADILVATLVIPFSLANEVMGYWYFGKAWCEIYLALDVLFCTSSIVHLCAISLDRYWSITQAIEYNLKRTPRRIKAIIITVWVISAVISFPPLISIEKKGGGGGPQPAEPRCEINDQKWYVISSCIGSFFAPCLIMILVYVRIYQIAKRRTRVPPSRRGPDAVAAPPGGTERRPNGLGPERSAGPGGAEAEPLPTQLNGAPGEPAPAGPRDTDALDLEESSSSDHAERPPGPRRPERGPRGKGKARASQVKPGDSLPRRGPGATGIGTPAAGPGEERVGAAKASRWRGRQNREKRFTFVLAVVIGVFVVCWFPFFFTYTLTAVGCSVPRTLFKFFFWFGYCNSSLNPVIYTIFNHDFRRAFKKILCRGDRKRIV
Procedure: as §1, §3, §4, §2

α1b adrenoreceptor [4] = molecular target: T2, α1b adrenoreceptor; experiment: Cellular calcium flux (FLIPR), α1b expressing CHO cells; assay type: cell-based; conditions: for increase in intracellular calcium, α1b calcium assay (in words): α1b expressing CHO cells
Procedure: as §1
Intracellular calcium levels were measured using a fluorometric imaging plate reader (FLIPR). Cells expressing α1 adrenoreceptors were cultured overnight at 15,000 cells/well in 96 well black-wall clear bottom plates (Packard). Adherent cells were loaded for 1 hour at 37° C. using the FLIPR Calcium Plus Assay Kit (Molecular Probes, Eugene, Oreg.), which included 2.5 mM probenecid (Sigma). Compounds (at 10 mM in 100% DMSO) were diluted in diluting buffer (HBSS, 20 mM HEPES, 2.5 mM probenecid, 0.5% BSA, pH 7.4). A titration of norepinephrine was included in every experiment and norepinephrine (at 1 μM) was also used as a plate standard on each assay plate. Cells were maintained at 37° C. throughout all calcium measurements. Fluorescence data was collected at 1 second interval for 60 seconds, followed by collection at 2 second intervals for 30 seconds. Background fluorescence was quantitated in wells containing cells with no additions and was subtracted from all experimental samples. All conditions were done in quadruplicate. Non-linear regression analysis using GraphPad Prism was used to calculate EC50 values.
as §2

[5] = listed as PE glucuronide batch 4
[6] = highest concentration evaluated (10 μM)
[7] = at 100 μM (highest concentration evaluated)

Structure (SMILES): CNC[C@H](O)c1cccc(O[C@@H]2O[C@H](C(=O)O)[C@@H](O)[C@H](O)[C@H]2O)c1 [PE glucuronide, (R)-PE glucuronide]
stimulation of [35S]-GTPγS binding, α2b (in words) (α2b adrenoreceptor [1]): pharmacologically inactive
stimulation of [35S]-GTPγS binding, α2b (in words) (α2b adrenoreceptor [1]; listed as PE glucuronide b2): No stimulatory activity
inhibition of [3H]-UK14304 binding, α2b (in words) (α2b adrenoreceptor [2]): weakly inhibits binding; also recorded: pharmacologically inactive
inhibition of [3H]-UK14304 binding, α2b (in words) (α2b adrenoreceptor [2]; listed as PE glucuronide b4): A small amount of binding
inhibition of [3H]-UK14304 binding, α2b (in words) (α2b adrenoreceptor [2]; [5]): minimal activity
inhibition of 3H-prazosin binding, α1b (in words) (α1b adrenoreceptor [3]; CHO cell membranes): No appreciable binding; also recorded: no binding affinity; also recorded: pharmacologically inactive
inhibition of [3H]-UK14304 binding, α2a (in words) (α2a adrenoreceptor): weakly inhibits binding; also recorded: pharmacologically inactive
inhibition of [3H]-UK14304 binding, α2a (in words) (α2a adrenoreceptor; listed as PE glucuronide b4): A small amount of binding
inhibition of [3H]-UK14304 binding, α2a (in words) (α2a adrenoreceptor; [5]): minimal activity
fold less potent than PE in inducing a calcium increase, α1b cells (α1b adrenoreceptor [4]; batch b4, approximately 0.28% PE): 300-450 fold
increase in intracellular calcium, α1b calcium assay (in words) (α1b adrenoreceptor [4]): consistent with level of contaminating phenylephrine; also recorded: pharmacologically inactive
increase in intracellular calcium, α1b calcium assay (in words) (α1b adrenoreceptor [4]; [5]): minimal activity

stimulation of [35S]-GTPγS binding, α2b (in words) (α2b adrenoreceptor [1]): no activity
agonist activity, α2b [35S]-GTPγS assay (in words) (α2b adrenoreceptor [1]; [6]): no activity
EC50 (α2b adrenoreceptor [1]; read-out: EC50, a2b GTPγS (class symbol)): > 10 µM
inhibition of [3H]-UK14304 binding, α2b (in words) (α2b adrenoreceptor [2]): no significant binding
Ki (α2b adrenoreceptor [2]; [3H]-UK14304, read-out: Ki, a2b Binding (class symbol)): > 100 µM
binding / affinity, α2b receptor (in words) (α2b adrenoreceptor [2]; [7]): no affinity
Ki (α1b adrenoreceptor [3]; [3H]-prazosin, read-out: Ki, a1b Binding (class symbol)): > 100 µM
inhibition of [3H]-UK14304 binding, α2a (in words) (α2a adrenoreceptor): no significant binding
Ki (α2a adrenoreceptor; [3H]-UK14304, read-out: Ki, a2a Binding (class symbol)): > 100 µM
binding / affinity, α2a receptor (in words) (α2a adrenoreceptor; [7]): no affinity
agonist activity, α1b calcium assay (in words) (α1b adrenoreceptor [4]; [6]): no activity
increase in intracellular calcium, α1b calcium assay (in words) (α1b adrenoreceptor [4]): not active
EC50 (α1b adrenoreceptor [4]; α1b-expressing CHO cells, read-out: EC50, a1b Calcium (class symbol)): > 10 µM
Structure (SMILES): O=C(O)C(O)c1cccc(O)c1 (centres unmarked) [3-hydroxymandelic acid]
binding / affinity, α1b receptor (in words) (α1b adrenoreceptor [3]; concentrations up to 100 μM): No appreciable binding; also recorded: no affinity

From patent US20090280160A1, “PHENYLEPHRINE PHARMACEUTICAL FORMULATIONS AND COMPOSITIONS FOR TRANSMUCOSAL ABSORPTION” (Schering-Plough Healthcare Products, Inc., priority 2007, published 2009)
